Results on eleven compounds are retold here after patent US6949585B2, “Cyclooctanone derivatives and cyclodecanone derivative, and use thereof” (Eisai Co., Ltd., priority 2001, dated 2005).

Holding throughout (format): cell-based
For assay [1], the system named is IL-2 production. Put plainly: IL-2 production by PHA-stimulated human peripheral lymphocytes (ELISA). The settings on record: PHA 10 μl/ml, 48 h, compound 0.1-100 μM. The method, then: Human peripheral lymphocytes were stimulated with mitogen (PHA) to induce IL-2 production. The amount of IL-2 produced was measured to evaluate the inhibitory effect of the present compound. Briefly, human peripheral blood monocyte fraction was isolated in a manner similar to Test Example 1.
The monocytes were suspended in RPM 1640 medium (Gibco BRL) containing 10% FCS and seeded in a petri dish and left at 37° C. for an hour. Then, the cells (lymphocytes) which were not attached to the wall of the petri desh were isolated by centrifugation. The lymphocytes collected were suspended in the medium and seeded at 5×10^5 cell/160 μl in a 96-well plate.
The present compound was added to the lymphocytes cultured and the mixture was left at 37° C. for thirty minutes. Then, the cells were stimulated by adding PHA (Difco) at a final concentration of 10 μl/ml and left at 37° C. for forty eight hours. For control, the cells were used wherein PHA was added to the cell at a final concentration of 10 μl/ml without the present compound.
The amount of IL-2 which was released in the culture supernatant was measured using an ELISA kit (BioSource International). The inhibitory rate (%) of IL-2 production as compared to control was calculated using the following formula from IL-2 amounts thus measured: [formula]
In addition, the concentration of the present compound to inhibit 50% (IC50) was calculated by plotting the inhibitory rate (%) of IL-2 production obtained by varying a final concentration of the present compound of from 0.1 μM to 100 μM.
For orientation: In an ELISA, binding on a coated surface is turned into a signal by an enzyme label.

Assay [2] concerns TNF-α production. Put plainly: TNF-α production by LPS-stimulated human peripheral blood monocytes (ELISA). The settings on record: LPS 10 ng/ml, 18 h, compound 0.1-100 μM. Here is the method: (§1) TNF-α and IL-6 production inhibitory activity of the compound of the present invention was evaluated by determining the amounts of TNF-α and IL-6 produced by the human peripheral blood monocyte stimulated with lipopolysaccharide(LPS). Briefly, human peripheral blood monocyte fraction was isolated from the peripheral venous blood from healthy male volunteers by density gradient centrifugation with Ficoll-Paque (Pharmacia). The monocytes were suspended in RPMI 1640 medium (Gibco BRL) containing 10% FCS and seeded at 5×10^5 cell/160 μl in a 96-well plate.
(§2) The present compound was added to the monocytes cultured and the mixture was left at 37° C. for thirty minutes. Then the monocytes were stimulated by adding LPS (Sigma) at a final concentration of 10 ng/ml and left 37° C. for eighteen hours. For control, the cells were used wherein LPS was added to the cell at a final concentration of 10 ng/ml without the present compound.
(§3) The amount of each of TNF-α and IL-6, which were released in the culture supernatant, was measured using an ELISA kit (R & D). The inhibitory rate (%) of TNF-α and IL-6 production as compared to control was calculated using the following formula from the amounts of TNF-α and […] thus measured: [formula]
(§4) In addition, the concentration of the present compound to inhibit 50% (IC50) was calculated by plotting the inhibitory rate (%) of IL-6 and TNF-α production obtained by varying a final concentration of the present compound of from 0.1 μM to 100 μM.

Assay [3] has as its system IL-6 production. Put plainly: IL-6 production by LPS-stimulated human peripheral blood monocytes (ELISA). The settings on record: Monocyte, LPS 10 ng/ml, 18 h, compound 0.1-100 μM. The method, then:
as §1, §2, §3, §4

In general, IC50 refers to the point on the concentration scale where inhibition reaches its midpoint. Low readings indicate greater potency, high ones weaker potency. On to `O=C1C=CCC(CCc2ccccc2)C[C@@H](O)[C@H]1O` (mixture of isomers) [Example 84 (b), (7RS,8RS)-7,8-dihydroxy-5-phenethyl-2-cycloocten-1-one], for which the 50% inhibitory concentration (IC50) in assay [1] (Lymphocyte) was found to be 3.6 µM; in assay [2] (Monocyte), 8.8 µM.

As for `O=C(OC1CC/C=C\C(=O)[C@H](O)[C@H](O)CC1)c1ccccc1O` (mixture of isomers) [Example 92, Z-(7RS,8RS)-7,8-dihydroxy-6-oxo-4-cyclodecenyl (2-hydroxy)benzoate], the IC50 in assay [1] (Lymphocyte) is 1.2 µM; in assay [2] (Monocyte), 1.7 µM.

As to `COc1ccc(C(=O)OC2CC=CC(=O)CCC2)c(O)c1` (centres unmarked) [Example 47, 5-Oxo-3-cyclooctenyl (2-hydroxy-4-methoxy)benzoate], the IC50 was 0.14 µM in assay [1] and 0.5 µM in assay [2].

In the case of `O=C1C=CCC(Cc2ccccc2)CCC1` (centres unmarked) [Example 4, 5-Benzyl-2-cycloocten-1-one], the IC50 came to 13.6 µM in assay [2] (Monocyte) and 23.3 µM in assay [3].

`O=C1/C=C\CCC(Cc2ccccc2)CC[C@@H](O)[C@H]1O` (mixture of isomers) [Example 87, Z-(9RS,10RS)-6-benzyl-9,10-dihydroxy-2-cyclodecen-1-one]: the figures for the IC50 in assay [1] (Lymphocyte) and in assay [2] (Monocyte) were 3 µM and 12.4 µM, respectively.

Take `O=C1C=CCC(CCc2ccccc2)CCC1` (centres unmarked) [Example 5, 5-Phenethyl-2-cycloocten-1-one]: the IC50 is 1.7 µM in assay [1] (Lymphocyte), 13.7 µM in assay [2] (Monocyte) and 21.6 µM in assay [3].

Consider `COc1ccc(C(=O)OC2CC/C=C\C(=O)[C@H](O)[C@H](O)CC2)c(O)c1` (mixture of isomers) [Example 93, Z-(7RS,8RS)-7,8-dihydroxy-6-oxo-4-cyclodecenyl (2-hydroxy-4-methoxy)benzoate], for which the IC50 in assay [1] is 2 µM; in assay [2] it was 1.8 µM.

For the compound `O=C1/C=C\CCC(Cc2ccccc2)CCCC1` (centres unmarked) [Example 22 (a), Z-6-benzyl-2-cyclodecen-1-one], the IC50 in assay [1] (Lymphocyte) is 2.6 µM; in assay [2] (Monocyte), 28.1 µM.

In assay [2] (Monocyte), `O=C(OC1CC=CC(=O)[C@H](O)[C@H](O)C1)c1ccccc1O` (mixture of isomers) [Example 90 (a), (6RS,7RS)-6,7-dihydroxy-5-oxo-3-cyclooctenyl 2-hydroxybenzoate] registered an IC50 of 3.4 µM.

On to `O=C1C=CCC(CCc2ccccc2O)C[C@@H](O)[C@H]1O` (mixture of isomers) [Example 85 (a), (7RS,8RS)-7,8-dihydroxy-5-[2-(2-hydroxyphenyl)ethyl]-2-cycloocten-1-one], for which the IC50 in assay [1] (Lymphocyte) is 64.9 µM; in assay [2] (Monocyte), 2.2 µM.

As to `O=C1C=CCC(CCc2cccc(O)c2)CCC1` (centres unmarked) [Example 18, 5-[2-(3-Hydroxyphenyl)ethyl]-2-cycloocten-1-one], the figures for the IC50 in assay [1] (Lymphocyte), in assay [2] (Monocyte) and in assay [3] were 2.1 µM, 5.9 µM and 6.8 µM, respectively.
